Assay results: PMC5458547, “Discovery of first-in-class reversible dual small molecule inhibitors against G9a and DNMTs in hematological malignancies” (Nature Communications, 2017)
Like-named read-outs stand apart in the source and are kept apart here.

Assays:
[1] = biological target: T1, ABL1(E255K)-phosphorylated (Homo sapiens, UniProt P00519, E255K); experiment: KINOMEscan kinase profiling; format: binding; details: read-out: Percent Control
T1 construct: purchased DiscoverX KINOMEscan (kinases); BPS Bioscience (epigenetic targets)
Procedure: (§1) Kinase Selectivity Profiling
(§2) (out of which 90 are non-mutant kinases) was performed at DiscoverRx (http://www.discoverx.com/home) using the KINOMEscan™ screening platform at a test concentration of 10 µM. Results for primary screen […]
(§3) positive control signal) / (negative control signal – positive control signal) *100, where negative control corresponds to DMSO treatment (100%) and positive control to the signal obtained with a control competitive compound (0%). […]
(§4) using the Hill equation. Each target was assayed in duplicate. […]

LKB1 = biological target: T2, LKB1 (Homo sapiens, UniProt Q15831); experiment: KINOMEscan kinase profiling; format: binding; details: read-out: Percent Control
T2 construct: purchased DiscoverX KINOMEscan (kinases); BPS Bioscience (epigenetic targets)
Procedure: as §1, §2, §3, §4

MAP3K4 = biological target: T3, MAP3K4 (Homo sapiens, UniProt Q9Y6R4); experiment: KINOMEscan kinase profiling; format: binding; details: read-out: Percent Control
T3 construct: purchased DiscoverX KINOMEscan (kinases); BPS Bioscience (epigenetic targets)
Procedure: as §1, §2, §3, §4

BTK = biological target: T4, BTK (Homo sapiens, UniProt Q06187); experiment: KINOMEscan kinase profiling; format: binding
T4 construct: purchased DiscoverRx (KINOMEscan contract screen)
Procedure: as §1, §2, §3, §4

FLT3 = biological target: T5, FLT3 (Homo sapiens, UniProt P36888); experiment: KINOMEscan kinase profiling; format: binding; details: read-out: Percent Control
T5 construct: purchased DiscoverX KINOMEscan (kinases); BPS Bioscience (epigenetic targets)
Procedure: as §1, §2, §3, §4

JNK2 = biological target: T6, JNK2 (Homo sapiens, UniProt P45984); experiment: KINOMEscan kinase profiling; format: binding; details: read-out: Percent Control
T6 construct: purchased DiscoverX KINOMEscan (kinases); BPS Bioscience (epigenetic targets)
Procedure: as §1, §2, §3, §4

PDGFRA = biological target: T7, PDGFRA (Homo sapiens, UniProt P16234); experiment: KINOMEscan kinase profiling; format: binding; details: read-out: Percent Control
T7 construct: purchased DiscoverX KINOMEscan (kinases); BPS Bioscience (epigenetic targets)
Procedure: as §1, §2, §3, §4

PRKCE = biological target: T8, PRKCE (Homo sapiens, UniProt Q02156); experiment: KINOMEscan kinase profiling; format: binding
T8 construct: purchased DiscoverRx (DiscoverX), KINOMEscan screening platform
Procedure: as §1, §2, §3, §4

p38-alpha = biological target: T9, p38-alpha (Homo sapiens, UniProt Q16539); experiment: KINOMEscan kinase profiling; format: binding; details: read-out: Percent Control
T9 construct: purchased DiscoverX KINOMEscan (kinases); BPS Bioscience (epigenetic targets)
Procedure: as §1, §2, §3, §4

CDK3 = biological target: T10, CDK3 (Homo sapiens, UniProt Q00526); experiment: KINOMEscan kinase profiling; format: binding; details: read-out: Percent Control
T10 construct: purchased DiscoverX KINOMEscan (kinases); BPS Bioscience (epigenetic targets)
Procedure: as §1, §2, §3, §4

CSF1R = biological target: T11, CSF1R (Homo sapiens, UniProt P07333); experiment: KINOMEscan kinase profiling; format: binding; details: read-out: Percent Control
T11 construct: purchased DiscoverX KINOMEscan (kinases); BPS Bioscience (epigenetic targets)
Procedure: as §1, §2, §3, §4

ADCK3 = biological target: T12, ADCK3 (Homo sapiens, UniProt Q8NI60); experiment: KINOMEscan kinase profiling; format: binding; details: read-out: Percent Control
T12 construct: purchased DiscoverX KINOMEscan (kinases); BPS Bioscience (epigenetic targets)
Procedure: as §1, §2, §3, §4

p38-beta = biological target: T13, p38-beta (Homo sapiens, UniProt Q15759); experiment: KINOMEscan kinase profiling; format: binding; details: read-out: Percent Control
T13 construct: purchased DiscoverX KINOMEscan (kinases); BPS Bioscience (epigenetic targets)
T13 sequence (Q15759 whole entry): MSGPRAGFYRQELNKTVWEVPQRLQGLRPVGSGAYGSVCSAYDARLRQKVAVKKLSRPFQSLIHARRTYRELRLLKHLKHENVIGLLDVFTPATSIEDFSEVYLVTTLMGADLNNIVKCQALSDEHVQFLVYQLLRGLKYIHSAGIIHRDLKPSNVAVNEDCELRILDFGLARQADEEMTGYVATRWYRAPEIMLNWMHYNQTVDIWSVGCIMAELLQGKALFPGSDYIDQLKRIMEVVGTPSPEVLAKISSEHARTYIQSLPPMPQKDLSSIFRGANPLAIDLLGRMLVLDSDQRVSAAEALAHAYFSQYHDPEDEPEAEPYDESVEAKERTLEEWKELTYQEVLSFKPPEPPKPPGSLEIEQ
Procedure: as §1, §2, §3, §4

OCI-Ly7 = experiment: Cell proliferation assay (MTS); format: cell-based; details: Homo sapiens, GC-DLBCL, 48 h
H1299 = experiment: Cell proliferation assay (MTS); format: cell-based; details: Homo sapiens, NCI-H1299; NSCLC
COLO-205 = experiment: Cell proliferation assay (MTS); format: cell-based; details: Homo sapiens, Colorectal
RT-4 = experiment: Cell proliferation assay (MTS); format: cell-based; details: Homo sapiens, Bladder
HCC95 = experiment: Cell proliferation assay (MTS); format: cell-based; details: Homo sapiens, SCLC
OCI-Ly1 = experiment: Cell proliferation assay (MTS); format: cell-based; details: Homo sapiens, GC-DLBCL, 48 h
[2] = Cytotoxicity in THLE-2 cells (ATP); format: cell-based; details: human; THLE-2, 72 h exposure; read-out: LC50
J82 = experiment: Cell proliferation assay (MTS); format: cell-based; details: Homo sapiens, Bladder
EZH1 = biological target: T14, EZH1 (Homo sapiens, UniProt Q92800); experiment: Epigenetics selectivity panel (BPS Bioscience); format: biochemical
T14 construct: purchased DiscoverX KINOMEscan (kinases); BPS Bioscience (epigenetic targets)

UM-UC-1 = experiment: Cell proliferation assay (MTS); format: cell-based; details: Homo sapiens; Bladder
Human HDAC1 = biological target: T15, Human HDAC1 (Homo sapiens, UniProt Q13547); experiment: HDAC1 enzyme activity assay; format: biochemical
T15 construct: purchased DiscoverX KINOMEscan (kinases); BPS Bioscience (epigenetic targets)

SU-DHL-4 = experiment: Cell proliferation assay (MTS); format: cell-based; details: Homo sapiens, GC-DLBCL, 48 h
Maximum tolerated dose = details: mouse, in vivo, iv
BRD1 = biological target: T16, BRD1 (Homo sapiens, UniProt O95696); experiment: Epigenetics selectivity panel (BPS Bioscience); format: binding
T16 construct: purchased DiscoverX KINOMEscan (kinases); BPS Bioscience (epigenetic targets)

MV4-11 = experiment: Cell proliferation assay (MTS); format: cell-based; details: Homo sapiens, MV4-11; AML, 48 h; read-out: GI50
LAL-CUN-2 = experiment: Cell proliferation assay (MTS); format: cell-based; details: Homo sapiens; ALL, 48 h; read-out: GI50
JMJD3 = biological target: T17, JMJD3 (Homo sapiens, UniProt O15054); experiment: Epigenetics selectivity panel (BPS Bioscience); format: biochemical
T17 construct: purchased DiscoverX KINOMEscan (kinases); BPS Bioscience (epigenetic targets)
T17 sequence (O15054 whole entry): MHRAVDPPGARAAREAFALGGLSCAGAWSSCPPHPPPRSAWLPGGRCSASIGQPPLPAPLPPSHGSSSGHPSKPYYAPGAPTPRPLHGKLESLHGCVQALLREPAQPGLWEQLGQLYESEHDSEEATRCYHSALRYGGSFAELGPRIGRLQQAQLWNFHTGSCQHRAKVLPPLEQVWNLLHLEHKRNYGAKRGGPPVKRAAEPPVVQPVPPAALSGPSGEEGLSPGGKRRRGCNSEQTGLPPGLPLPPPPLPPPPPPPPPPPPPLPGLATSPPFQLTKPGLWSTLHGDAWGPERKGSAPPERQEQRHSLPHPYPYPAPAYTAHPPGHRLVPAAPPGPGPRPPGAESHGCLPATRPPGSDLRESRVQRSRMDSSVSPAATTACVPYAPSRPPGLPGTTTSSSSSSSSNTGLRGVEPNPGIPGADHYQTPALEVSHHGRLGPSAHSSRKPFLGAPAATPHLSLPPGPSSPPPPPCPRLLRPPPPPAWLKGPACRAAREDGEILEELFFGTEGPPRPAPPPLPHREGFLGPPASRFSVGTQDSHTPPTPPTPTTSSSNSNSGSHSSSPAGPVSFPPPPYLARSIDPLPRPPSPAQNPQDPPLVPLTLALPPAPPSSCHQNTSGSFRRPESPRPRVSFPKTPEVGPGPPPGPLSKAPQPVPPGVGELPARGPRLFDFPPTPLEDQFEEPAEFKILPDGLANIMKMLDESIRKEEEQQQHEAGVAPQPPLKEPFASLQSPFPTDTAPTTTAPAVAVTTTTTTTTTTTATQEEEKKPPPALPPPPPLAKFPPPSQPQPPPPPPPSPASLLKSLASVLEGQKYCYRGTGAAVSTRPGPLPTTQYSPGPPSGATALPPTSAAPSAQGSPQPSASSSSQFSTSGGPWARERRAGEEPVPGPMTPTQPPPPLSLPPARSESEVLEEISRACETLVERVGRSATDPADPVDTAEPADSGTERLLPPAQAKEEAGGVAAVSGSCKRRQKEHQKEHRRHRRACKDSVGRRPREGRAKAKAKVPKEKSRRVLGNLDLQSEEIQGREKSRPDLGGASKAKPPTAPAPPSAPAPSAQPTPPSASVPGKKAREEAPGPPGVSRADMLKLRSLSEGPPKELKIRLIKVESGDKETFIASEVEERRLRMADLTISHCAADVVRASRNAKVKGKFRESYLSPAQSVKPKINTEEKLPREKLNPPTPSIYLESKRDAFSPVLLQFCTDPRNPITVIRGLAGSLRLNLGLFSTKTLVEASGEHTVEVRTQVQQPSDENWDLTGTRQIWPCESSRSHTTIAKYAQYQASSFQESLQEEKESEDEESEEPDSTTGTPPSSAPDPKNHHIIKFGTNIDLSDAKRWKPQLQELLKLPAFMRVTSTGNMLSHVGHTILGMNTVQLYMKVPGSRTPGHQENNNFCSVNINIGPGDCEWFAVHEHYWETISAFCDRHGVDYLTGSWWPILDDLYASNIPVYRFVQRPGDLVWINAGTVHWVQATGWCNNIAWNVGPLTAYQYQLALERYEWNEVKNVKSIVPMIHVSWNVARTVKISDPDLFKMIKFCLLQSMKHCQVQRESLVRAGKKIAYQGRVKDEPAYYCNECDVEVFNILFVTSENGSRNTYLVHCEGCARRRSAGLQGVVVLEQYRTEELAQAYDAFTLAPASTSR

JMJD2B = biological target: T18, JMJD2B (Homo sapiens, UniProt O94953); experiment: Epigenetics selectivity panel (BPS Bioscience); format: biochemical
T18 construct: purchased DiscoverX KINOMEscan (kinases); BPS Bioscience (epigenetic targets)
T18 sequence (O94953 whole entry): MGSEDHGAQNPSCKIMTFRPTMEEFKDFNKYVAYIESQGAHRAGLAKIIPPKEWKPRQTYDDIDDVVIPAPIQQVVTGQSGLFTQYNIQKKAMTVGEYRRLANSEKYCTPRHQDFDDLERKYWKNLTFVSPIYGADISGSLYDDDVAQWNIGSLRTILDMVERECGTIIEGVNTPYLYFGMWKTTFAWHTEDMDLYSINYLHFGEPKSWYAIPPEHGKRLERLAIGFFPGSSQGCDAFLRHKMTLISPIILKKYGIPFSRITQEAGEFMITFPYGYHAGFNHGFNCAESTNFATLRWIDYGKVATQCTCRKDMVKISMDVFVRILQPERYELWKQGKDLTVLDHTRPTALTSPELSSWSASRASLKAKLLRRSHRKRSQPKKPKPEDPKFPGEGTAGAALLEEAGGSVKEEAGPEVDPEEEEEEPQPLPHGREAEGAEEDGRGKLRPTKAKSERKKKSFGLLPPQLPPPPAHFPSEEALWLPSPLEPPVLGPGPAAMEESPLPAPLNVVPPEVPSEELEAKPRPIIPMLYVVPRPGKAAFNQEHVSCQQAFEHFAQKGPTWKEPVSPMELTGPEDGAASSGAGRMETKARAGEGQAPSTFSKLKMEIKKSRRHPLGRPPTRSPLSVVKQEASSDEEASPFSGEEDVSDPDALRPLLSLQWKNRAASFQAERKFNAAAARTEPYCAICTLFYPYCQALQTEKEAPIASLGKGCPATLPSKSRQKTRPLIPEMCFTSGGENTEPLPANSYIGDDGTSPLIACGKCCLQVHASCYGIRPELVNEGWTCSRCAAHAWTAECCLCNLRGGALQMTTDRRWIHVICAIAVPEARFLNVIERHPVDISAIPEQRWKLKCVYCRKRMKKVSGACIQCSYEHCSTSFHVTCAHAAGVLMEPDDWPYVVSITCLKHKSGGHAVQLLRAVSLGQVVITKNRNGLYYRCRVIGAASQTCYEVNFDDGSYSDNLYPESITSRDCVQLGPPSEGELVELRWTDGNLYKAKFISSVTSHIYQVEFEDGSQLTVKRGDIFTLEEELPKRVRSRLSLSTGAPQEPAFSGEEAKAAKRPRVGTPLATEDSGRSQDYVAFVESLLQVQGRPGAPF

H209 = experiment: Cell proliferation assay (MTS); format: cell-based; details: Homo sapiens, NCI-H209; SCLC
697 = experiment: Cell proliferation assay (MTS); format: cell-based; details: Homo sapiens; ALL, 48 h
Jarid1C = biological target: T19, Jarid1C (Homo sapiens, UniProt P41229); experiment: Epigenetics selectivity panel (BPS Bioscience); format: biochemical
T19 construct: purchased DiscoverX KINOMEscan (kinases); BPS Bioscience (epigenetic targets)
T19 sequence (P41229 whole entry): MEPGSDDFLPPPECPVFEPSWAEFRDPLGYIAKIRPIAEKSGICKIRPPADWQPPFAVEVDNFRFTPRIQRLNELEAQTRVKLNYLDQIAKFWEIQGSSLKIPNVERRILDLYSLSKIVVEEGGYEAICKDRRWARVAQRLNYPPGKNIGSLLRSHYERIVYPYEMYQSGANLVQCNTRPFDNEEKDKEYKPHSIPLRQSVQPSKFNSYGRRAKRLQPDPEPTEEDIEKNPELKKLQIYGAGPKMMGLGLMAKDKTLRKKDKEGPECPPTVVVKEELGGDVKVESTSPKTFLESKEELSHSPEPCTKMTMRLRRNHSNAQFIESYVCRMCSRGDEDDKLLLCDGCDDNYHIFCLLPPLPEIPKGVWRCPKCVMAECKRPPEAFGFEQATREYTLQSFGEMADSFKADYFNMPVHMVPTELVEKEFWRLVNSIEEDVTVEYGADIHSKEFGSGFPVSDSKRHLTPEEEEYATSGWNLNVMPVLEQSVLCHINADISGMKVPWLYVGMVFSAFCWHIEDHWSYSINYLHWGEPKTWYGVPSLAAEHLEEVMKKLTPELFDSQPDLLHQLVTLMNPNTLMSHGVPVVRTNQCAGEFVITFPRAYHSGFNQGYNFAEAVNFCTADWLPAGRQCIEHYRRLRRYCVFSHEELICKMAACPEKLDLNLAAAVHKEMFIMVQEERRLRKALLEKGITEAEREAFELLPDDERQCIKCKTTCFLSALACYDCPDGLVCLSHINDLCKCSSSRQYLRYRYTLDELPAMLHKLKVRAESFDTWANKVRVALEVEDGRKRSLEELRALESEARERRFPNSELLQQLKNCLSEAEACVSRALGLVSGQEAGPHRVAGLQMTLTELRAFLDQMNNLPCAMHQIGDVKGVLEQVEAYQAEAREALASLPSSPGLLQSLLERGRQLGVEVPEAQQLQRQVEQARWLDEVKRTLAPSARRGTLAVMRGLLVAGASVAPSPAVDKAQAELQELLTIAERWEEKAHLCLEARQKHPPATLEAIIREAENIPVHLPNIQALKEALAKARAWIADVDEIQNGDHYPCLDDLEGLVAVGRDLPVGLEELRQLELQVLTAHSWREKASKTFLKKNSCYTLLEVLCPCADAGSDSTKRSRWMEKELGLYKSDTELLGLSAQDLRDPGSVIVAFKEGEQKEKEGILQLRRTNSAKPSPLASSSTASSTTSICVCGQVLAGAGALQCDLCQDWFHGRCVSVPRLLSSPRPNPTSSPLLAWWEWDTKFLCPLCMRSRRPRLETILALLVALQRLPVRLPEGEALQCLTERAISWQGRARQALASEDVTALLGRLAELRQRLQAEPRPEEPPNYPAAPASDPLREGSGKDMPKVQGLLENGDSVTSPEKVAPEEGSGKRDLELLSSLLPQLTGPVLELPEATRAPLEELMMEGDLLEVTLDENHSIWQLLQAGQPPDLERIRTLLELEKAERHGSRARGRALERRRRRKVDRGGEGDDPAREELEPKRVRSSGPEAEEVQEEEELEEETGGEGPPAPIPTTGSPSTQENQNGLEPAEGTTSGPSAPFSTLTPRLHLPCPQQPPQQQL

SET7-9 = biological target: T20, SET7-9 (Homo sapiens, UniProt Q8WTS6); experiment: Epigenetics selectivity panel (BPS Bioscience); format: biochemical
T20 construct: purchased DiscoverX KINOMEscan (kinases); BPS Bioscience (epigenetic targets)
T20 sequence (Q8WTS6 whole entry): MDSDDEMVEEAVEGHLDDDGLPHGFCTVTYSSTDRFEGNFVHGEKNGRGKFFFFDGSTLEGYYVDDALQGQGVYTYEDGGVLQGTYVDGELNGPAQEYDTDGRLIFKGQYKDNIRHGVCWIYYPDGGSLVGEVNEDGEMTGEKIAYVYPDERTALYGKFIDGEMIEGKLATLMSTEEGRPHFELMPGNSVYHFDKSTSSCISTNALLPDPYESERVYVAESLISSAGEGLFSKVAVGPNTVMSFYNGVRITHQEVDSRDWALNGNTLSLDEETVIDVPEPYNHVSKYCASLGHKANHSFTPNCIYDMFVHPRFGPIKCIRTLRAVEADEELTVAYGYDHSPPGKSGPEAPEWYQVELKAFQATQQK

5637 = experiment: Cell proliferation assay (MTS); format: cell-based; details: Homo sapiens; Bladder
EZH2 = biological target: T21, EZH2 (Homo sapiens, UniProt Q15910); experiment: Epigenetics selectivity panel (BPS Bioscience); format: biochemical
T21 construct: purchased DiscoverX KINOMEscan (kinases); BPS Bioscience (epigenetic targets)

UACC-62 = experiment: Cell proliferation assay (MTS); format: cell-based; details: Homo sapiens, Melanoma
PFEIFFER = experiment: Cell proliferation assay (MTS); format: cell-based; details: Homo sapiens, GC-DLBCL, 48 h
hERG potassium channels = biological target: T22, hERG potassium channels (Homo sapiens, UniProt Q12809); experiment: hERG blockade assay (Predictor fluorescence polarization); details: read-out: hERG binding IC50
T22 construct: purchased Life technologies PV5365

OCI-Ly10 = experiment: Cell proliferation assay (MTS); format: cell-based, human; details: ABC-DLBCL, 48 h, read-out: GI50
[3] = 10 µM, read-out: Percent Control

COc1cc2c(NC3CCN(C)CC3)cc(-c3ccc(C)o3)nc2cc1OCCCN1CCCC1 [CM-272, 6-methoxy-2-(5-methyl-2-furyl)-N-(1-methyl-4-piperidyl)-7-(3-pyrrolidin-1-ylpropoxy)quinolin-4-amine]
remaining binding at 10 µM [1]: 5.5% | remaining binding at 10 µM (LKB1): 100% | remaining binding at 10 µM (MAP3K4): 93% | remaining binding at 10 µM (BTK; [3]): 0.5% | Kd (BTK; KINOMEscan): 1100 nM | remaining binding at 10 µM (FLT3): 100% | remaining binding at 10 µM (JNK2): 34% | remaining binding at 10 µM (PDGFRA): 14% | remaining binding at 10 µM (PRKCE; [3]): 0% | Kd (PRKCE; KINOMEscan): 1200 nM | remaining binding at 10 µM (p38-alpha): 96% | remaining binding at 10 µM (CDK3): 100% | remaining binding at 10 µM (CSF1R): 100% | remaining binding at 10 µM (ADCK3): 100% | remaining binding at 10 µM (p38-beta): 92% | GI50 (OCI-Ly7): 534 nM | GI50 (H1299): 1060 nM | GI50 (COLO-205): 679 nM | GI50 (RT-4): 817 nM | GI50 (HCC95): 751 nM | GI50 (OCI-Ly1): 1010 nM | CC50 at 72 h [2]: 1780 nM | GI50 (J82): > 10000 nM | inhibition at 10 µM (EZH1): 6% | GI50 (UM-UC-1): 842 nM | inhibition at 10 µM (Human HDAC1): 0% | GI50 (SU-DHL-4): 1160 nM | MTD (Maximum tolerated dose): 2.5 mg/kg | inhibition at 10 µM (BRD1): 0% | GI50 (MV4-11): 269 nM | GI50 (LAL-CUN-2): 664 nM | inhibition at 10 µM (JMJD3): 9% | inhibition at 10 µM (JMJD2B): 2% | GI50 (H209): 1150 nM | GI50 697: 913 nM | inhibition at 10 µM (Jarid1C): 1% | inhibition at 10 µM (SET7-9): 3% | GI50 5637: 717 nM | inhibition at 10 µM (EZH2): 1% | GI50 (UACC-62): 780 nM | GI50 (PFEIFFER): 1220 nM

COc1cc2c(NCC3CCN(C)CC3)cc(-c3ccc(C)o3)nc2cc1OCCCN1CCCC1 [CM-579, 6-methoxy-2-(5-methyl-2-furyl)-N-[(1-methyl-4-piperidyl)methyl]-7-(3-pyrrolidin-1-ylpropoxy)quinolin-4-amine]
IC50 (hERG potassium channels): > 100000 nM | GI50 (H1299): 547 nM | GI50 (COLO-205): 275 nM | GI50 (HCC95): 613 nM | CC50 at 72 h [2]: 1300 nM | inhibition at 10 µM (EZH1): 17% | inhibition at 10 µM (Human HDAC1): 0% | MTD (Maximum tolerated dose): ≤ 1 mg/kg | GI50 (MV4-11): 385 nM | GI50 (LAL-CUN-2): 365 nM | inhibition at 10 µM (JMJD3): 3% | inhibition at 10 µM (JMJD2B): 40% | GI50 697: 4280 nM | inhibition at 10 µM (Jarid1C): 13% | inhibition at 10 µM (SET7-9): 0% | inhibition at 10 µM (EZH2): 0% | GI50 (UACC-62): 150 nM | GI50 (OCI-Ly10): < 31 nM | GI50 (OCI-Ly10; Homo sapiens, OCI-Ly10, 48 h): 31 nM
